Test results as given in patent publication US20110217301A1, “METHODS FOR TREATING OR SCREENING FOR COMPOUNDS FOR THE TREATMENT OF SEPSIS” (priority 2009, published 2011).
Where a SMILES comes first, the peptide text is derived from it. Bridges are numbered along the chain shown (N, C = ends). [ ]: non-standard residue; d: D form. hArg = N=C(N)NCCCC[C@H](N)C(=O)O; Mpa = O=C(O)CCS

Tests used:
splenocytes = assay: Ex vivo septic platelet-splenocyte co-incubation with anti-aggregatory platelet pretreatment; apoptosis by flow cytometry (TUNEL, pan-caspase FLICA); format: cell-based, mouse
Protocol: Non-septic wild type spleens were firmly pressed between two glass slides to express splenocytes, which were isolated by centrifugation through Ficoll-Paque™ Plus (GE Healthcare Bio-Sciences Corporation, Piscataway, N.J.). Splenocyte concentrations were measured and standardized using a manual hemocytometer and co-incubated ex vivo with platelets (from septic or healthy control mice) for 90 minutes at 37° C. and 5% CO2 in complete Dulbecco's Modified Eagle Medium (DMEM) (Invitrogen/GIBCO, Carlsbad, Calif.). For some experiments, a 0.4 μm semi-permeable membrane (Corning Inc., Corning, N.Y.) was used to physically separate platelets from splenocytes.
Splenocyte apoptosis in each experimental condition was quantified in cell suspensions by flow cytometry on a FACSCalibur™ (Becton, Dickinson and Company, San Jose, Calif.) and in tissue sections by immunohistochemistry on a Nikon Eclipse E 800 Microscope (Nikon Instruments Inc., Melville, N.Y.) with a Spot RT Slider Camera (Diagnostic Instruments Inc., Sterling Heights, Mich.).
Splenocyte suspension apoptosis was identified using FlowTACS™ (Trevigen, Gaithersburg, Md.), a TUNEL-based assay for detection of DNA fragmentation. Positive controls were generated with staurosporine (Sigma Life Sciences, St Louis, Mo.). CD4+ fractions were identified by fluorophore-labeled antibody staining (clone L3T4; eBiosciences, San Diego, Calif.). We used a Sulforhodamine FLICA-Apoptosis Detection Kit Pan-Caspase Assay (Immunochemistry Technologies, Bloomington, Minn.) to measure activated caspases in apoptotic cells. Immunohistochemistry was performed on frozen heart, lung, kidney, spleen, and liver sections (4-7 μm) stained with the TUNEL-based TACK® 2 TdT In Situ Apoptosis Detection Kit (Trevigen, Gaithersburg, Md., USA) according to the manufacturer's instructions.

other integrins = settings: binds specifically to GPIIb/IIIa; cited from earlier work
[1] = target: plasma membrane glycoprotein GPIIb/IIIa (mouse) (UniProt Q9QUM0); assay: cell-based or functional assay
[2] = adults admitted to the ICU already receiving aspirin, clopidogrel or a combination; cited from earlier work
granzyme B = assay: Flow cytometry of intracellular granzyme B in CD61+ platelets; format: cell-based, mouse; settings: additional platelet activation with TNFα; data not shown
Excerpt: To determine if granzyme B mRNA up-regulation translates to increased granzyme B protein expression, additional citrated whole blood was collected from septic and control mice. It was fixed with 1% paraformaldehyde, permeabilized, and intracellularly stained with anti-granzyme B (clone 16G6; eBioscience, San Diego, Calif., USA) using appropriate isotype and negative (unlabeled) controls. Flow cytometry data were generated on a FACSCalibur™ System (BD Biosciences, San Jose, Calif., USA), gating on CD61^+ (clone 2C9.G2; BD) platelets, and analyzed using FlowJo 7.2 (Tree Star, Inc., Ashland, Oreg., USA).

CD4+ splenocytes = assay: Co-incubation of CD4+ splenocytes with platelets with or without recombinant TNFα pre-treatment; apoptosis by TiterTACS; format: cell-based, mouse
Protocol: CD4^+ splenocytes from healthy control mice were co-incubated with platelets isolated from control or septic mice for 90 minutes at 37° C. and 5% CO2 with or without platelet pre-treatment with 10 ng/mL of recombinant TNFα (Sigma-Aldrich) for 90 minutes. Splenocyte apoptosis was evaluated by TiterTACS™ (Trevigen, Gaithersburg, Md., USA), a quantitative colorimetric assay for in situ detection of DNA fragmentation. All samples were run in triplicate according to the manufacturer's protocol with data normalized to negative and nuclease-induced positive controls.
Our finding of granzyme B in platelets from septic mice and humans caused us to hypothesize that platelets could be lymphotoxic in this scenario. To study this question, platelets from mice 18 hours status post CLP were co-incubated with CD4^+ splenocytes isolated from healthy control mice. Platelets from septic wild-type (i.e. C57BL6) mice induced marked splenocyte apoptosis compared to platelets from sham wild-type mice (rate of apoptosis=26.0±3.4 versus 3.9±3.4%; p=0.007). (FIG. 4) This co-incubation experiment was repeated with platelets from septic granzyme B null (−/−) mice (i.e. B6.129S2-Gzmb^tmlLey). In this case, there was a complete lack of induced splenocyte apoptosis by septic platelets. […] (FIG. 4)

[3] = eptifibatide-exposed (4 μg/mL, 15 minutes) septic wild type platelets with healthy splenocytes vs non-exposed septic platelets, mean±SEM
[4] = platelets pre-treated, compared with untreated septic platelets

UniProt Q9QUM0, sequence (Q9QUM0 32-1033, chain 1 of 2): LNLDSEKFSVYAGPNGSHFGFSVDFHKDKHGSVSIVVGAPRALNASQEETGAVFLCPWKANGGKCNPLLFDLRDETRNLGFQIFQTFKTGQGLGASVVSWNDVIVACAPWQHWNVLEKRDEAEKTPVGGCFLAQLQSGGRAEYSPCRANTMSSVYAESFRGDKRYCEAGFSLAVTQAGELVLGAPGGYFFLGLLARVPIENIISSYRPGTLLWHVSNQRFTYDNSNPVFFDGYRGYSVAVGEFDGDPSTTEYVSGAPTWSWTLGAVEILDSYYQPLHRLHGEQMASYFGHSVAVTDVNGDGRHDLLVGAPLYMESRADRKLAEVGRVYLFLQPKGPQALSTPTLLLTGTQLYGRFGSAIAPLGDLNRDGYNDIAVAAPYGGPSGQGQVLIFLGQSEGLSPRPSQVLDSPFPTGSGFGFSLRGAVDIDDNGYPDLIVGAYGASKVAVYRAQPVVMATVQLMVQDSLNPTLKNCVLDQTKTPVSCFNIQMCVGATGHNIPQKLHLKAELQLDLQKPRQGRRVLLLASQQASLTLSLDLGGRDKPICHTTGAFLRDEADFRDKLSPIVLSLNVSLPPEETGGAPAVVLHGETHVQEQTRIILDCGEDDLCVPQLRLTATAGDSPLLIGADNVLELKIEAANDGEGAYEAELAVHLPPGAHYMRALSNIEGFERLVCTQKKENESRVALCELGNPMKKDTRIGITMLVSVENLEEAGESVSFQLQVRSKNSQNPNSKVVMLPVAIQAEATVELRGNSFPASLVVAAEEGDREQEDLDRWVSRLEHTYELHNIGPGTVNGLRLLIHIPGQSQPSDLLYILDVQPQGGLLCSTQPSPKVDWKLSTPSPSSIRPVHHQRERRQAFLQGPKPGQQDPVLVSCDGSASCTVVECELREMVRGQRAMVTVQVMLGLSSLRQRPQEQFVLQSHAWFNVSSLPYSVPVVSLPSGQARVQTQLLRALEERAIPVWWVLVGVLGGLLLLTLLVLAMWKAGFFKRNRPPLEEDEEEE
UniProt Q9QUM0, sequence (O54890 26-787, chain 2 of 2, further chain): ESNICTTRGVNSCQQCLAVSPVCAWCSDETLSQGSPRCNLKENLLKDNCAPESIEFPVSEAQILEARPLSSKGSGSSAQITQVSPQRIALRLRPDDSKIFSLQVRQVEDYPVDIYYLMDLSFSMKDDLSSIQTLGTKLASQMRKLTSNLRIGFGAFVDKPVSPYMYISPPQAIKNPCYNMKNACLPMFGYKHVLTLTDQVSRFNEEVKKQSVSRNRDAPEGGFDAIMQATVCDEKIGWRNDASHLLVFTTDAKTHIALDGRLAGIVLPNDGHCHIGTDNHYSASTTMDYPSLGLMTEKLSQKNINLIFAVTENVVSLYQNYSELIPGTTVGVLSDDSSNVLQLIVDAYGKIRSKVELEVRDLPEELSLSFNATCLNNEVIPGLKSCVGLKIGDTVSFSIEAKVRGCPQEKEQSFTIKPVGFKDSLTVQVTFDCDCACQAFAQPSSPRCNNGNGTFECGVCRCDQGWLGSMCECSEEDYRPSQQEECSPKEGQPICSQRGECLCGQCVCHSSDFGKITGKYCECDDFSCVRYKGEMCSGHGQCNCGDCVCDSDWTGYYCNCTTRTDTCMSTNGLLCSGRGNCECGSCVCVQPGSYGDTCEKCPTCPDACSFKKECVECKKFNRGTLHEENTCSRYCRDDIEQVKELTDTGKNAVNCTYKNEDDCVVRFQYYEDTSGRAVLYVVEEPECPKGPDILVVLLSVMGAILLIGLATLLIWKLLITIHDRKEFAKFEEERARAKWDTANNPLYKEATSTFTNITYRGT

N=C(N)NCCCC[C@@H]1NC(=O)CCSSC[C@@H](C(N)=O)NC(=O)[C@@H]2CCCN2C(=O)[C@H](Cc2c[nH]c3ccccc23)NC(=O)[C@H](CC(=O)O)NC(=O)CNC1=O [eptifibatide] ([Mpa][hArg]GDWPC-NH2; disulfide 1-7)
reduction of splenocyte apoptosis in the CD4+ fraction (splenocytes; [3]): 85±20.7 % reduction
reduction of splenocyte apoptosis overall (splenocytes; [3]): 66.5±10.6 % reduction
septic platelet-induced CD4+ splenocyte apoptosis (TUNEL+ and pan-Caspase+), result in words (splenocytes; [4]): significant reduction
septic platelet-induced splenocyte apoptosis overall (TUNEL+ and pan-Caspase+), result in words (splenocytes; [4]): significant reduction
affinity for other integrins (other integrins): low affinity

eptifibatide (peptide)
reduction of septic platelet-induced apoptosis in the CD4+ splenocyte fraction, TUNEL+ and pan-caspase+ by flow cytometry [1]: 85 % reduction
reduction of septic platelet-induced splenocyte apoptosis (overall), TUNEL+ and pan-caspase+ by flow cytometry [1]: 66.5 % reduction

COC(=O)[C@H](c1ccccc1Cl)N1CCc2sccc2C1 [clopidogrel]
levels of MODS [2]: decreased levels of MODS
mortality [2]: decreased mortality

TNFα
intracellular granzyme B in platelets, result in words (granzyme B): did not alter
lymphotoxic capacity of platelets, result in words (CD4+ splenocytes; further platelet activation with recombinant TNFα): did not alter
rate of apoptosis (lymphotoxicity) of CD4+ splenocytes (CD4+ splenocytes; wild-type platelets further activated by TNFα (10 ng/mL, 90 minutes), p=0.88 vs non-activated control platelets): 4.5±1.3%

CC(=O)Oc1ccccc1C(=O)O [aspirin]
levels of MODS [2]: decreased levels of MODS
mortality [2]: decreased mortality
